{"source": "patent US6407088B1", "about": "(priority 2000, dated 2002)", "key": {"[1]": {"system": "Chinese hamster lung (CHL) cells", "type": "cell-based", "settings": "for Chromosomal aberration rate (%): MMC 0.25 μg/mL, no metabolic activation, P<0.01", "experimental": "The Chinese hamster lung (CHL) cells were exposed to tetrodotoxin at the concentrations of 5.0, 10.0, and 20.0 μg/mL for 24 or 48 hours in the absence of Sg activation and for 6 hours in the presence of S9 activation."}, "Kunming mice [2]": {"system": "Kunming mice", "assay": "Acetic acid-induced writhing test in mice", "type": "in vivo", "settings": "mouse, in vivo"}, "rats [3]": {"system": "rats", "assay": "Tail-flick test in rats", "settings": "rat, in vivo"}, "rats [4]": {"system": "rats", "settings": "rat, in vivo"}, "monkeys [5]": {"system": "monkeys", "settings": "rhesus monkey, in vivo"}, "monkeys [6]": {"system": "monkeys", "settings": "rhesus monkey, in vivo", "remark": "listed apart in the source"}, "mice [7]": {"system": "mice", "settings": "mouse, in vivo"}, "Wistar rats": {"system": "Wistar rats", "assay": "Formalin induced inflammation test in rats", "settings": "rat, in vivo"}, "[8]": {"system": "rabbits' quadriceps femoris muscles"}, "mice [9]": {"system": "mice", "assay": "Analgesic time-effect relation in acetic acid-induced writhing test in mice", "type": "in vivo", "settings": "mouse, in vivo, sc"}, "[10]": {"system": "late term cancer patients", "settings": "human, in vivo"}, "[11]": {"system": "2% red blood cell (RBC) suspension", "type": "cell-based, rabbit"}, "hPN3": {"molecular_target": "hPN3 (Homo sapiens, UniProt Q9Y5Y9)", "sequence (Q9Y5Y9 whole entry, looked up)": "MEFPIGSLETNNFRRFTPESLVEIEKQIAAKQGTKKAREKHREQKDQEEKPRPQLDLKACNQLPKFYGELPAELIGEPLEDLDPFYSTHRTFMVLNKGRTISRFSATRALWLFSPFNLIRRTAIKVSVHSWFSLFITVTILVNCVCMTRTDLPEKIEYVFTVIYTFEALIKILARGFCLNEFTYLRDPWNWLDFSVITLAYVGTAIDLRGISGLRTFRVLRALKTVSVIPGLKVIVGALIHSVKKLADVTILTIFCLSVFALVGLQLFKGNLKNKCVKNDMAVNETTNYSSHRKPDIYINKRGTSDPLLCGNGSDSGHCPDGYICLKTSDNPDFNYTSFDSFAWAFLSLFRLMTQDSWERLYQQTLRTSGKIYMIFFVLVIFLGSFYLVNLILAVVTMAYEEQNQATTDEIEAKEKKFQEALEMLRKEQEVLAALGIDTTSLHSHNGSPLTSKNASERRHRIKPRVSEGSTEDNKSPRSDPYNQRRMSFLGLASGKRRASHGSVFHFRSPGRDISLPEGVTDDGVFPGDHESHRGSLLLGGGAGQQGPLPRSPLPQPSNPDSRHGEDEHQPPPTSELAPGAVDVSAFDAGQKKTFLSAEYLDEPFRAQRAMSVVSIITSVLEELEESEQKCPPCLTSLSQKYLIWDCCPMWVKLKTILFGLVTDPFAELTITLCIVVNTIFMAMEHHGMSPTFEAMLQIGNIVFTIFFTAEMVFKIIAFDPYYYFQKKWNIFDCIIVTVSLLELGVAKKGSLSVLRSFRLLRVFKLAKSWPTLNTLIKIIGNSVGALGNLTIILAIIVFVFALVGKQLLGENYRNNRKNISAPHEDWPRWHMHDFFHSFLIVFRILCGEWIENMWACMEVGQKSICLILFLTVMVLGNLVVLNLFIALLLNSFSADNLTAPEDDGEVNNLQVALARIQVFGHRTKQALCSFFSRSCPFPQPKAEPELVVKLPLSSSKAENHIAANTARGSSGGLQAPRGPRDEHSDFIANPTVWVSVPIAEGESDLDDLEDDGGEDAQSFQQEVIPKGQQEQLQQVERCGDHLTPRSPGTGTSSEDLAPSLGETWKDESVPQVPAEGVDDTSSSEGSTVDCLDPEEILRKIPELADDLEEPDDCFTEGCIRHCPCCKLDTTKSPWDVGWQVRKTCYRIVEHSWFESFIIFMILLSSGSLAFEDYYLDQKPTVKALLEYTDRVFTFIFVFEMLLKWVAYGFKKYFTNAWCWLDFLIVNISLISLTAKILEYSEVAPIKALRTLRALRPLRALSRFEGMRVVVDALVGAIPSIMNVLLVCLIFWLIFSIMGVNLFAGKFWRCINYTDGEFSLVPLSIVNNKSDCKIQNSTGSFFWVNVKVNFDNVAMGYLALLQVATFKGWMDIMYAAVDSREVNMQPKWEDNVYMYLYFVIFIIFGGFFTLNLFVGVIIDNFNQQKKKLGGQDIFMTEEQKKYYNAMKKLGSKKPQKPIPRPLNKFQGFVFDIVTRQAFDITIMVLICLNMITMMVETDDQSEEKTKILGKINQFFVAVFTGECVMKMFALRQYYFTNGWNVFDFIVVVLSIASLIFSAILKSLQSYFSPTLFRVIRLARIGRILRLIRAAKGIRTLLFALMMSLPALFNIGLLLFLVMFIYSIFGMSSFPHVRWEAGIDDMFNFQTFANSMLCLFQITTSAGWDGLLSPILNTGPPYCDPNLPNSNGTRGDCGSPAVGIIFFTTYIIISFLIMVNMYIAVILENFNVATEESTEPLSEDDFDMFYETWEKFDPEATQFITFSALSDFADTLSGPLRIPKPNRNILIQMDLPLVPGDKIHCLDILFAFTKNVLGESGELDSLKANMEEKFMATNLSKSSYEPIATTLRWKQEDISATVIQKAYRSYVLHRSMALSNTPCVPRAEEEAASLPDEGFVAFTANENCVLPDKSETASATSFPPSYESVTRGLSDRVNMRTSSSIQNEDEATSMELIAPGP", "settings": "cited from earlier work"}, "anesthetized dogs": {"system": "anesthetized dogs", "settings": "dog, in vivo"}, "rabbits": {"system": "rabbits", "design": "species or system New Zealand white rabbits", "settings": "rabbit, in vivo, iv"}, "Hartley guinea pigs": {"system": "Hartley guinea pigs", "settings": "guinea pig, in vivo"}, "[12]": {"molecular_target": "TTX-resistant sodium channel (TTX-R) (Rattus norvegicus, UniProt Q62968)", "sequence (Q62968 whole entry, looked up)": "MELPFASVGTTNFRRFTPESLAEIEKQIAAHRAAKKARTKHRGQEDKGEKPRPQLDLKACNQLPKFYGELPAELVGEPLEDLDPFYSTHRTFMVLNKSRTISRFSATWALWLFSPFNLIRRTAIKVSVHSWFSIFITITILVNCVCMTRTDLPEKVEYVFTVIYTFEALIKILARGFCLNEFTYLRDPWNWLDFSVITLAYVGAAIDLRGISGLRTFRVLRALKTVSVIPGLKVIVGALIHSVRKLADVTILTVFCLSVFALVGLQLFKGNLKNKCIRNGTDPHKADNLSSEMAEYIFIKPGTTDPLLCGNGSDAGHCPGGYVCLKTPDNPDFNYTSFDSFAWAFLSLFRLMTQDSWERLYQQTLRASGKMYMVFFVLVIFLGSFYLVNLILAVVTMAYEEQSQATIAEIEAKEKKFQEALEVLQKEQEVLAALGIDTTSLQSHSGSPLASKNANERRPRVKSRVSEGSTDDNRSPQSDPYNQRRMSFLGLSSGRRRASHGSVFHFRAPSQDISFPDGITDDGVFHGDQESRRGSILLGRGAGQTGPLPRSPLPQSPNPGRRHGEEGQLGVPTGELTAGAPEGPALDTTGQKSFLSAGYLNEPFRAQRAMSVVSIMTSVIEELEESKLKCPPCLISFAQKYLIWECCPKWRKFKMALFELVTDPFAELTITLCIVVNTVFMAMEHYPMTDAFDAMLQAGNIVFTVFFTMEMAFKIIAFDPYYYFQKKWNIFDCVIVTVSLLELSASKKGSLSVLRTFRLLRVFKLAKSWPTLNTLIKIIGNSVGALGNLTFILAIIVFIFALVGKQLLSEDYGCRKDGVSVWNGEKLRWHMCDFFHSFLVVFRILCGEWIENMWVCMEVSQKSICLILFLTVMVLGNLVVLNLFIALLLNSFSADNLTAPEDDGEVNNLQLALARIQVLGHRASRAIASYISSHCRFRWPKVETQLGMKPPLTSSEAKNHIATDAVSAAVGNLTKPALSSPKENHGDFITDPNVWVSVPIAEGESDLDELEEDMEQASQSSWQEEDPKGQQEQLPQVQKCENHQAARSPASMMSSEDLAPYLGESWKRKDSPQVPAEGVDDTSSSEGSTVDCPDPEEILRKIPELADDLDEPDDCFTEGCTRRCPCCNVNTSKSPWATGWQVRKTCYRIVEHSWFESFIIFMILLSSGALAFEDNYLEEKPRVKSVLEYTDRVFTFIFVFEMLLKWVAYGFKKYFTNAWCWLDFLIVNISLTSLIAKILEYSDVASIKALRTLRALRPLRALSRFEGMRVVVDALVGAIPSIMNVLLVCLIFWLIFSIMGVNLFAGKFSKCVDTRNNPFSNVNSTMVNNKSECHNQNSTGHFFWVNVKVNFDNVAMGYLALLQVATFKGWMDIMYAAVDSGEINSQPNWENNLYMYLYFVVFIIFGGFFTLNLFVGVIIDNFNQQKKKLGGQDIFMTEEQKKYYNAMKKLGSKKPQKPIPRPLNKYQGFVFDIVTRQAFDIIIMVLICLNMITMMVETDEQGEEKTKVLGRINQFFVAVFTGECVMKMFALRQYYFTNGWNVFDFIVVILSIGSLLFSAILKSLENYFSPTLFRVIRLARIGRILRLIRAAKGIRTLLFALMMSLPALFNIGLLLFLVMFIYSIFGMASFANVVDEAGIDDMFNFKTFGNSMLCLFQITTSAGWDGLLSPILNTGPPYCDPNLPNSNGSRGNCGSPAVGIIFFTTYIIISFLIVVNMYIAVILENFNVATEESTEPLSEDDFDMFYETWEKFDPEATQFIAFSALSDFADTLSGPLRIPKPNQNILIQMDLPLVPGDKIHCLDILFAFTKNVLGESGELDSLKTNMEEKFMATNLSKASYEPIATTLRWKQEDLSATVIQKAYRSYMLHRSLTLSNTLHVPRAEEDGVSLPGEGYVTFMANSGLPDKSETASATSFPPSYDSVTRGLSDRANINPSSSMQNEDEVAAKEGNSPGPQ", "settings": "cited from earlier work"}, "Rhesus monkeys": {"system": "Rhesus monkeys", "settings": "rhesus monkey, in vivo"}, "mouse's marrow cells": {"system": "mouse's marrow cells", "settings": "in vivo"}, "Shanghai mice": {"system": "Shanghai mice", "settings": "mouse, in vivo"}, "Kunming mice [13]": {"system": "Kunming mice", "settings": "mouse, in vivo, ip"}, "[14]": {"system": "TTX-sensitive sodium channel (TTX-S)", "settings": "cited from earlier work"}, "[15]": {"settings": "quadriceps femoris, 1 mL im, 48 hours"}}, "note": "Several values for one entry are separate records, joined by “and”; a condition that tells them apart may be missing. Equal values may be shown once. Entries after “also recorded” stand apart in the source; their conditions may differ. Read-outs that look alike come from different tables or passages of the source. Marks after values point to notes of the source that are not given here."}
{"smiles": "CO[C@@]12[C@H](COC(N)=O)C3=C(C(=O)C(C)=C(N)C3=O)N1C[C@@H]1N[C@@H]12", "note": "[MMC]", "values": [{"measurement": "Chromosomal aberration rate (%)", "setting": "[1]; 24 hours", "value": 72, "unit": "%"}, {"measurement": "Chromosomal aberration rate (%)", "setting": "[1]; 48 hours", "value": 99, "unit": "%"}]}
{"smiles": "CCOC(=O)C1(c2ccccc2)CCN(C)CC1", "note": "[Meperidine]", "values": [{"measurement": "ID50 and 95% Confidence Interval", "setting": "Kunming mice [2]; sc", "value": 1.8, "unit": "mg/kg"}]}
{"smiles": "CN1CC[C@]23c4c5ccc(O)c4O[C@H]2[C@@H](O)C=C[C@H]3[C@H]1C5", "note": "[Morphine, morphine]", "values": [{"measurement": "Latency time", "setting": "rats [3]", "value": ">20", "unit": "min"}, {"measurement": "Score of body weight loss (Mean ± SD)", "setting": "rats [4]", "value": "10.00 ± 2.60"}, {"measurement": "Score of withdrawal symptoms (Mean ± SD)", "setting": "rats [4]", "value": "7.38 ± 1.16"}, {"measurement": "Percentage change in body weight, Overall Mean X ± SD", "setting": "monkeys [5]", "value": "−6.1"}, {"measurement": "Score of Withdrawal Symptoms", "setting": "monkeys [6]; Guangxi", "value": "61.0 ± 2.6"}, {"measurement": "Body Weight Loss (%)", "setting": "monkeys [6]", "value": "6.6 ± 1.7", "unit": "%"}, {"measurement": "Jumping Frequency (X ± SD)", "setting": "mice [7]", "value": "19.7 ± 16.3"}, {"measurement": "Jumping Incidence (%)", "setting": "mice [7]", "value": 90.0, "unit": "%"}, {"measurement": "ID50 (95% CI)", "setting": "Wistar rats", "value": 2.74, "unit": "mg/kg"}, {"measurement": "ID50 (95% CI)", "setting": "Wistar rats; sc", "value": "2.63 (2.32 ˜ 2.98) mg/kg"}]}
{"smiles": "CC1(C)S[C@@H]2[C@H](NC(=O)Cc3ccccc3)C(=O)N2[C@H]1C(=O)[O-].[K+]", "note": "[Penicillin G-K, penicillin G-K]", "values": [{"measurement": "Grade for stimulation reaction, Left side, rabbit 1", "setting": "[8]; [15]", "value": 4}, {"measurement": "Grade for stimulation reaction, Right side, rabbit 1", "setting": "[8]; [15]", "value": 4}, {"measurement": "Grade for stimulation reaction, Right side, rabbit 2", "setting": "[8]; [15]", "value": 4}, {"measurement": "Grade for stimulation reaction, Left side, rabbit 2", "setting": "[8]; rabbit, in vivo", "value": 4}, {"measurement": "Sum of grades", "setting": "[8]; two rabbits, both sides", "value": 16}]}
{"smiles": "N=C1NC(O)C2C3OC4(O)OC(C(O)C2(N1)C4O)C3(O)CO", "note": "(stereo not shown) [TTX, octahydro-12-(hydroxymethyl)-2-imino-5,9:7,10a-dimethano-10aH-(1,3)dioxocino(6,5-d)-pyrimidine-4,7,10,11,12-pentol]", "values": [{"measurement": "analgesic effect, times stronger than meperidine", "setting": "Kunming mice [2]", "value": 670, "unit": "times"}, {"measurement": "duration of analgesic effect", "setting": "mice [9]", "value": "about 5 hours"}, {"measurement": "onset of therapeutic effect", "setting": "mice [9]", "value": 15, "unit": "min"}, {"measurement": "time to peak effect after dosing", "setting": "mice [9]", "value": 1, "unit": "h"}, {"measurement": "Side Effect(s)", "setting": "[10]", "value": "Numbness; also recorded: Numbness,; also recorded: nausea, vomit"}, {"measurement": "addiction or withdrawal", "setting": "[10]", "value": "No signs of addiction or withdrawal"}, {"measurement": "blood pressure decrease", "setting": "[10]", "value": "10-15 mm Hg"}, {"measurement": "duration of analgesic effect / total pain relief", "setting": "[10]", "value": "20 to 30", "unit": "days"}, {"measurement": "duration of numbness or tingling", "setting": "[10]", "value": "at most 30 min"}, {"measurement": "onset of numbness or tingling in lips, tongue tip, fingers and toes", "setting": "[10]", "value": "10 to 20", "unit": "min"}, {"measurement": "pain at the conclusion of treatment", "setting": "[10]", "value": "entirely eliminated"}, {"measurement": "pain intensity of all subjects", "setting": "[10]", "value": "reduced to 0 in all but one patient who recorded a 1"}, {"measurement": "quality of life interference", "setting": "[10]", "value": 0}, {"measurement": "quality of life score", "setting": "[10]", "value": 6}, {"measurement": "time to noticeable pain relief, some subjects", "setting": "[10]", "value": 5, "unit": "min"}, {"measurement": "time to pain relief (various degrees), all subjects", "setting": "[10]", "value": "≤ 30", "unit": "min"}, {"measurement": "time to recovery of blood pressure", "setting": "[10]", "value": "40 to 50", "unit": "min"}, {"measurement": "time to take effect", "setting": "[10]", "value": "5 to 30", "unit": "min"}, {"measurement": "Score of body weight loss (Mean ± SD)", "setting": "rats [4]", "value": "0.00 ± 0.00"}, {"measurement": "Score of withdrawal symptoms (Mean ± SD)", "setting": "rats [4]; sc", "value": "0.30 ± 0.90 and 0.20 ± 0.60"}, {"measurement": "Percentage change in body weight, Overall Mean X ± SD", "setting": "monkeys [5]", "value": 3.2}, {"measurement": "withdrawal symptom score (Mean ± SD)", "setting": "monkeys [5]", "value": 0.0}, {"measurement": "chromosomal aberration rates", "setting": "[1]", "value": "0˜2%"}, {"measurement": "in vitro haemolyzation", "setting": "[11]", "value": "did not induce in vitro haemolyzation"}, {"measurement": "IC50", "setting": "hPN3", "value": 80, "unit": "µM"}, {"measurement": "Body Weight Loss (%)", "setting": "monkeys [6]", "value": "0.4 ± 0.8", "unit": "%"}, {"measurement": "Score of Withdrawal Symptoms", "setting": "monkeys [6]", "value": "2.6 ± 4.6"}, {"measurement": "toxic reaction on dose escalation", "setting": "monkeys [6]", "value": "significant toxic reaction (vomiting)"}, {"measurement": "effect on blood pressure, heart rate, electrocardiogram, respiratory rate and depth", "setting": "anesthetized dogs", "value": "did not significantly affect"}, {"measurement": "Jumping Frequency (X ± SD)", "setting": "mice [7]", "value": "0.70 ± 2.70 and 1.30 ± 3.90"}, {"measurement": "Jumping Incidence (%)", "setting": "mice [7]; sc", "value": "10.0*# %"}, {"measurement": "vascular stimulation", "setting": "rabbits", "value": "did not produce any pronounced vascular stimulation"}, {"measurement": "analgesic effect, times stronger than morphine", "setting": "Wistar rats", "value": 2900, "unit": "times"}, {"measurement": "analgesic effect, times stronger than morphine", "setting": "Wistar rats; sc", "value": 3200, "unit": "times"}, {"measurement": "animals with hypersensitive reaction (+)", "setting": "Hartley guinea pigs", "value": "0/8"}, {"measurement": "animals with hypersensitive reaction (++)", "setting": "Hartley guinea pigs", "value": "0/8"}, {"measurement": "animals with hypersensitive reaction (−)", "setting": "Hartley guinea pigs", "value": "8/8"}, {"measurement": "IC50", "setting": "[12]", "value": "~100", "unit": "µM"}, {"measurement": "decrease of AChE activity", "setting": "Rhesus monkeys", "value": 41.2, "unit": "%"}, {"measurement": "toxic symptoms", "setting": "Rhesus monkeys", "value": "evident toxic symptoms"}, {"measurement": "micronucleus rate", "setting": "mouse's marrow cells", "value": "4.3 ‰"}, {"measurement": "embryotoxicity or teratogenic action", "setting": "Shanghai mice", "value": "No embryotoxicity or teratogenic action"}, {"measurement": "Sleeping time (X ± SD)", "setting": "Kunming mice [13]", "value": "35.1 ± 26.2 ||| min and 36.3 ± 16.7 ||| min and 26.6 ± 22.5 ||| min"}, {"measurement": "IC50", "setting": "[14]", "value": "0.001 to 0.02", "unit": "µM"}]}
{"smiles": "O=P1(N(CCCl)CCCl)NCCCO1", "note": "(stereo not shown) [cyclophosphamide]", "values": [{"measurement": "Number of Micronucleus cells", "setting": "mouse's marrow cells", "value": 279}, {"measurement": "teratogenic rate", "setting": "Shanghai mice; female, Shanghai", "value": 100, "unit": "%"}]}
